In patent US5477857A, “Diagnostic uses of hydrazinoadenosines” (priority 1993, dated 1995):

What was measured:
[1] = Systemic blood pressure response in anesthetized dog; settings: infusion: adenosine 372 μg/kg/min, Compound A 1 μg/kg/min
Description: An anesthetized dog was prepared for cardiovascular function testing. Electromagnetic flow probes were placed on the circumflex coronary artery and the left anterior descending coronary artery. Systemic systolic and diastolic blood pressure and heart rate were also measured.

[2] = test system: circumflex coronary artery; assay: Thallium-201 scintigram in anesthetized dogs with stenosed circumflex coronary artery; format: in vivo; settings: dog, adenosine 372 μg/kg/min for 6 minutes, Compound A 0.6 μg/kg/min
From the text: Dogs were anesthetized and their circumflex coronary artery was stenosed to produce a cardiac perfusion deficit.

[3] = test system: coronary arterioles; settings: background, cited from earlier work
[4] = test system: circumflex coronary artery; assay: Circumflex coronary blood flow in anesthetized dog, electromagnetic flow probes; format: in vivo; settings: for increase in circumflex coronary blood flow: adenosine 372 μg/kg/min, Compound A 1.0 μg/kg/min
Description: An anesthetized dog was prepared for cardiovascular function testing.

[5] = literature; cited from earlier work
[6] = target: T1, A1 (EKG) (Cavia porcellus, UniProt P47745); assay: A50 for decrease in heart rate or conduction velocity on the EKG (A1 effect) in the isolated guinea pig heart
T1 construct: An isolated guinea pig heart preparation was set up using well-known techniques; from tissue; host or cells: isolated perfused guinea pig heart
T1 sequence (P47745 1-326): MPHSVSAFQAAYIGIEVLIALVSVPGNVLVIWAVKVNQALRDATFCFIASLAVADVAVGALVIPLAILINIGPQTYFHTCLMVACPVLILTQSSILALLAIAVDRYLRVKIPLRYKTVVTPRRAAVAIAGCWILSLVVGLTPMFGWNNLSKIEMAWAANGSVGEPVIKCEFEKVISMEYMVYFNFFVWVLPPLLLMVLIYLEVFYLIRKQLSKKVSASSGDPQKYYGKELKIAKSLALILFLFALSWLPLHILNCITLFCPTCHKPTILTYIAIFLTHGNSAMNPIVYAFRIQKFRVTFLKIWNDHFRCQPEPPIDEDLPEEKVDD

[7] = target: A2a (coronary) (Cavia porcellus, UniProt P46616)
Description: An isolated guinea pig heart preparation was set up using well-known techniques. The heart was perfused with a constant flow pump through the coronary vessels with a oxygenated balanced salt solution. The coronary perfusion pressure and the EKG were measured. Under constant flow, a decrease in coronary perfusion pressure indicates dilation (A2a effect).

[8] = infusion: adenosine 372 μg/kg/min, Compound A 1 μg/kg/min

Chain of A2a (coronary) (P46616 whole entry, the tested form may be a part): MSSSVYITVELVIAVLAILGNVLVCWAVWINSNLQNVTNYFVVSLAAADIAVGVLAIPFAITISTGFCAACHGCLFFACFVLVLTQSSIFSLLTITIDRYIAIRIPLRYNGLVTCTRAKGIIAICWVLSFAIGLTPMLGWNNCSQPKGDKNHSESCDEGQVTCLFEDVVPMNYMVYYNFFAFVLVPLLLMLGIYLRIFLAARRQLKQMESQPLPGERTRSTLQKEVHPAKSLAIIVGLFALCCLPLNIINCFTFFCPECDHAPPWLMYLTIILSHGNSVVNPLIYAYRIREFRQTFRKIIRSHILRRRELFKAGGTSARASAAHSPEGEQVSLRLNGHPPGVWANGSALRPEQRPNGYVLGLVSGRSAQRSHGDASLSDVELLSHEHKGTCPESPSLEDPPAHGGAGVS

| SMILES | CHANGE IN SYSTOLIC BLOOD PRESSURE [1] [%] | DURATION OF RESPONSE [1] [min] | perfusion defect shown on thallium-201 scintigram [2] | duration of coronary blood flow effect [3] | heart block ([3]; particularly at doses near 1 mg/kg) | increase in circumflex coronary blood flow [4] [%] | CHANGE IN […] FLOW [4, 8] | duration of significant hypotensive response [5] | reflex tachycardia [5] | EC50 [6] [nM] | S[…] A1/A2a ([7]; A50 EKG (A1) over A50 coronary (A2a)) | potency relative to adenosine in causing coronary vasodilation ([7]; isolated guinea pig heart, vs adenosine) [times] | EC50 ([7]; read-out: A50 CORONARY (A2a EFFECT), isolated guinea pig heart, concentration producing a 50% maximal response) [nM] | CHANGE IN CIRCUMFLEX CORONARY FLOW [4, 8] |
| --- | --- | --- | --- | --- | --- | --- | --- | --- | --- | --- | --- | --- | --- | --- |
| Nc1ncnc2c1ncn2[C@@H]1O[C@H](CO)[C@@H](O)[C@H]1O [Adenosine, adenosine] | -25 | 5 | clearly showed a perfusion defect | short-lasting | even blocks (stops) the heart beat | 300 | +300% |  |  |  |  |  |  |  |
| CCNC(=O)[C@H]1O[C@@H](n2cnc3c(N)nc(NCCc4ccc(CCC(=O)O)cc4)nc32)[C@H](O)[C@@H]1O [CGS 21680] |  |  |  |  |  |  |  | more than 24 hrs | significant reflex tachycardia |  |  |  |  |  |
| Nc1nc(NN=CC2CCCCC2)nc2c1ncn2[C@@H]1O[C@H](CO)[C@@H](O)[C@H]1O [Compound A] |  | 15 |  |  |  | 500 |  |  |  | 3000 | 15,000 | 250 | 0.2 | +500% |
